This is an account of results in patent US8497255B2, “Phosphonic acids as S1P receptor modulators” (Allergan, Inc., priority 2010, dated 2013).

The assay deals with T1, human S1P1 receptor (Homo sapiens, UniProt P21453).
T1 construct: expressed in transfected cells; membranes used
Nature of the assay: GTP γ35S binding assay for S1P1 activity. In kind it is biochemical. The following applies: activity potency, S1P1 receptor from GTP γ35S binding; membranes, 30 min at 25° C. The method, then: Compounds were synthesized and tested for S1P1 activity using the GTP γ^35S binding assay. These compounds may be assessed for their ability to activate or block activation of the human S1P1 receptor in cells stably expressing the S1P1 receptor.
GTP γ^35S binding was measured in the medium containing (mM) HEPES 25, pH 7.4, MgCl2 10, NaCl 100, dithitothreitol 0.5, digitonin 0.003%, 0.2 nM GTP γ^35S, and 5 μg membrane protein in a volume of 150 μl. Test compounds were included in the concentration range from 0.08 to 5,000 nM unless indicated otherwise. Membranes were incubated with 100 μM 5′-adenylylimmidodiphosphate for 30 min, and subsequently with 10 μM GDP for 10 min on ice. Drug solutions and membrane were mixed, and then reactions were initiated by adding GTP γ^35S and continued for 30 min at 25° C. Reaction mixtures were filtered over Whatman GF/B filters under vacuum, and washed three times with 3 mL of ice-cold buffer (HEPES 25, pH7.4, MgCl2 10 and NaCl 100). Filters were dried and mixed with scintillant, and counted for ^35S activity using a β-counter. Agonist-induced GTP γ^35S binding was obtained by subtracting that in the absence of agonist. Binding data were analyzed using a non-linear regression method. In case of antagonist assay, the reaction mixture contained 10 nM S1P in the presence of test antagonist at concentrations ranging from 0.08 to 5000 nM.
(In general: Binding of GTPγS marks nucleotide exchange on a G protein.)

pEC50: −log10 of the molar value.

T1 sequence (P21453 whole entry): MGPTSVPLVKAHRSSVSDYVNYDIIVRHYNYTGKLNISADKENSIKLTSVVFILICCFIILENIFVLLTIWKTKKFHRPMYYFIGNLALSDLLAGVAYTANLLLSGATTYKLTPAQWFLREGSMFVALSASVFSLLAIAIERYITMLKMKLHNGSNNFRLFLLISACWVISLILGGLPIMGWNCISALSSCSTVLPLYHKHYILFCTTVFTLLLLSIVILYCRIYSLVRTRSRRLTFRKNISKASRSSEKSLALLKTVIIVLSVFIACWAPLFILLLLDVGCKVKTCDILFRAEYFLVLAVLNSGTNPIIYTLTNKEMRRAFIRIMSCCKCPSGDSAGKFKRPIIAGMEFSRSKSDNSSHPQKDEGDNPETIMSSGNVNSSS

Usually pEC50 stands for the EC50 on a negative log10 scale, so that one unit is a factor of ten. Consider `CC(C)Oc1ccc(-c2nc(-c3ccc(CNCCCP(=O)(O)O)cc3)no2)cc1C(F)(F)F` [Compound 1, {3-[(4-{5-[4-isopropoxy-3-(trifluoromethyl)phenyl]-1,2,4-oxadiazol-3-yl}benzyl)amino]propyl}phosphonic acid], for which the pEC50 is 8.50.
Molecule `CC(C)Oc1ccc(-c2nc(-c3ccc(CNCCCP(=O)(O)O)cc3)no2)cc1Br` [Compound 2, [3-({4-[5-(3-bromo-4-isopropoxyphenyl)-1,2,4-oxadiazol-3-yl]benzyl}amino)propyl]phosphonic acid] showed a pEC50 of 8.51.
To `CC(C)Cc1ccc(-c2nc(-c3ccc(CNCCCP(=O)(O)O)cc3)no2)cc1` [Compound 3, (3-{4-[5-(4-Isobutyl-phenyl)-[1,2,4]oxadiazol-3-yl]-benzylamino}-propyl)-phosphonic acid] belongs 8.75.
